The record followed here is ChEMBL document CHEMBL2331532, “(+)-Laburnamine, a natural selective ligand and partial agonist for the α4β2 nicotinic receptor subtype” (J Nat Prod, 2013).

pEC50, pIC50, pKi: −log10 of the molar value. Active and inactive are the calls of the source. No cut-off for these calls is given here.

Experiment [1] concerns the target Neuronal acetylcholine receptor subunit alpha-7 (Homo sapiens, UniProt P36544). In words: Displacement of [3H]methyllycaconitine from alpha7 nAChR (unknown origin).
In experiment [2] the target is Neuronal acetylcholine receptor; alpha4/beta2 (Homo sapiens, UniProt P17787+P43681). Kind of experiment: Displacement of [3H]epibatidine from alpha4beta2 nAChR (unknown origin). It is filed as protein-complex assay.
The target of experiment [3] is T1, Neuronal acetylcholine receptor; alpha4/beta2 (Rattus norvegicus, UniProt P09483+P12390). Kind of experiment: Displacement of [3H]epibatidine from alpha4beta2 nAChR in rat cortex.
In experiment [4] the target is Neuronal acetylcholine receptor subunit alpha-7 (Rattus norvegicus, UniProt Q05941). In words: Displacement of [125I]alpha-bungarotoxin from alpha7 nAChR from rat hippocampus. It is filed as tissue-based.
Experiment [5] has as its target T2, Neuronal acetylcholine receptor; alpha4/beta2 (Rattus norvegicus) (UniProt P09483+P12390). In words: Displacement of [3H]epibatidine from alpha4beta2 nAChR in rat cortex up to 100 uM.
For a further experiment, the species on record is Rattus norvegicus. In words: Selectivity ratio of Ki for alpha7 nAChR in rat hippocampus to Ki for alpha4beta2 nAChR in rat cortex. It is filed as tissue-based.
Experiment [6] in a line: Selectivity ratio of Ki for human alpha3beta4 nAChR to Ki for alpha4beta2 nAChR in rat cortex.
The target of experiment [7] is T3, Acetylcholine receptor; alpha1/beta1/delta/gamma (Homo sapiens, UniProt P02708+P07510+P11230+Q07001). Kind of experiment: Displacement of [125I]alpha-bungarotoxin from human alpha2betagammadelta nAChR at 10 uM. It is filed as protein-complex assay.
Experiment [8] concerns the target T2, Neuronal acetylcholine receptor; alpha4/beta2 (Rattus norvegicus). In words: (§1) Antagonist activity at alpha4beta2 nAChR in rat brain striatal slices assessed as inhibition of nicotine-induced release of [3H]dopamine release. The conditions noted are these: concentration not given here. Type of experiment: tissue-based.
Experiment [9] has as its target T1, Neuronal acetylcholine receptor; alpha4/beta2. The experiment is described as §1. It is filed as tissue-based.
Experiment [10] concerns the target T2, Neuronal acetylcholine receptor; alpha4/beta2 (Rattus norvegicus). Kind of experiment: Agonist activity at alpha4beta2 nAChR in rat brain striatal slices assessed as release of [3H]dopamine release relative to nicotine. It is filed as tissue-based.
Experiment [11] addresses T1, Neuronal acetylcholine receptor; alpha4/beta2. Kind of experiment: Agonist activity at alpha4beta2 nAChR in rat brain striatal slices assessed as release of [3H]dopamine release. Type of experiment: tissue-based.
For experiment [12], the target named is T3, Acetylcholine receptor; alpha1/beta1/delta/gamma. Kind of experiment: Displacement of [125I]alpha-bungarotoxin from human alpha2betagammadelta nAChR. Type of experiment: protein-complex assay.
The target in experiment [13] is Neuronal acetylcholine receptor; alpha3/beta4 (Homo sapiens, UniProt P30926+P32297). Kind of experiment: Displacement of [3H]epibatidine from human alpha3beta4 nAChR expressed in HEK cells. It is filed as cell-based, HEK293.
Chain of Neuronal acetylcholine receptor; alpha3/beta4 (P30926 whole entry): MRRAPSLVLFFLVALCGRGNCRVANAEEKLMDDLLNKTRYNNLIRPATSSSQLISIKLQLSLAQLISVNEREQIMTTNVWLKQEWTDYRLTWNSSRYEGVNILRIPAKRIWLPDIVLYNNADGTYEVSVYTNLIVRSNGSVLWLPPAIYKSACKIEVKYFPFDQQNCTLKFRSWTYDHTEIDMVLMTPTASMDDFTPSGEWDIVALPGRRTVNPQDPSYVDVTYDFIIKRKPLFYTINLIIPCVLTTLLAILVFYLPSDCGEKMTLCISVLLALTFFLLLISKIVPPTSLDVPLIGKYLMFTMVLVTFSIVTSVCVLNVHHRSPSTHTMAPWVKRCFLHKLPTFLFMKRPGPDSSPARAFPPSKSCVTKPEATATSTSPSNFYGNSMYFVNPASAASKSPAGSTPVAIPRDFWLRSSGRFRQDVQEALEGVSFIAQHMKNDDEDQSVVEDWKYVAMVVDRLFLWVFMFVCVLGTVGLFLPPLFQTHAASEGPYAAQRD
Chain of Neuronal acetylcholine receptor; alpha3/beta4 (P32297 whole entry): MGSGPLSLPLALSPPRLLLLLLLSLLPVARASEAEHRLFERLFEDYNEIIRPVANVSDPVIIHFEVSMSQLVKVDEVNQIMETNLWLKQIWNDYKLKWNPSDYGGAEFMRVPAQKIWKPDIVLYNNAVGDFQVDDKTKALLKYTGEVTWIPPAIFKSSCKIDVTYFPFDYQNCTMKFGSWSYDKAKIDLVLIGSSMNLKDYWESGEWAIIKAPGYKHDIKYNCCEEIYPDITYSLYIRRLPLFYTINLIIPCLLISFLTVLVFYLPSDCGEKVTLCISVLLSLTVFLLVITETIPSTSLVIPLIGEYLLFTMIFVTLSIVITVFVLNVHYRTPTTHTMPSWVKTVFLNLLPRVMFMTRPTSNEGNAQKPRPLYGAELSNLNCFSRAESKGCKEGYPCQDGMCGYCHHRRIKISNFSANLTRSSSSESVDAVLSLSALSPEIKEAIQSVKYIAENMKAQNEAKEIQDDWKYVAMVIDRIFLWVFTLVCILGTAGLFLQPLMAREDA

T1 sequence (P09483 whole entry): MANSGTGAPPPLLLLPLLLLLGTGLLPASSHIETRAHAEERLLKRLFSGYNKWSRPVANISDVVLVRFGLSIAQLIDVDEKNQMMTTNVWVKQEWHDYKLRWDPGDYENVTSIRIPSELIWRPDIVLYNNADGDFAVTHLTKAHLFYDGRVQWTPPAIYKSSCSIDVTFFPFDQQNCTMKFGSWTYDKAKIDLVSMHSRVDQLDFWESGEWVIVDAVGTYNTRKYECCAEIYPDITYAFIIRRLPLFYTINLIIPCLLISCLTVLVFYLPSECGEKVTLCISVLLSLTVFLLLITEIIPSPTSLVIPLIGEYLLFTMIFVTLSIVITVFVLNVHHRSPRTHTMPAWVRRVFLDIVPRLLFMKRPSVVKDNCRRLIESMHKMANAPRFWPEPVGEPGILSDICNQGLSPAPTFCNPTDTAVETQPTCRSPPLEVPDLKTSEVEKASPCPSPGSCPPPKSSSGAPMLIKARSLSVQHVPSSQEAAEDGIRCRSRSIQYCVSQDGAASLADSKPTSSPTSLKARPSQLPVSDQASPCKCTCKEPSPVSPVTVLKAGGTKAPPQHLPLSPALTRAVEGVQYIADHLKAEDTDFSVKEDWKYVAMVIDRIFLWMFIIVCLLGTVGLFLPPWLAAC
T1 sequence (P12390 whole entry): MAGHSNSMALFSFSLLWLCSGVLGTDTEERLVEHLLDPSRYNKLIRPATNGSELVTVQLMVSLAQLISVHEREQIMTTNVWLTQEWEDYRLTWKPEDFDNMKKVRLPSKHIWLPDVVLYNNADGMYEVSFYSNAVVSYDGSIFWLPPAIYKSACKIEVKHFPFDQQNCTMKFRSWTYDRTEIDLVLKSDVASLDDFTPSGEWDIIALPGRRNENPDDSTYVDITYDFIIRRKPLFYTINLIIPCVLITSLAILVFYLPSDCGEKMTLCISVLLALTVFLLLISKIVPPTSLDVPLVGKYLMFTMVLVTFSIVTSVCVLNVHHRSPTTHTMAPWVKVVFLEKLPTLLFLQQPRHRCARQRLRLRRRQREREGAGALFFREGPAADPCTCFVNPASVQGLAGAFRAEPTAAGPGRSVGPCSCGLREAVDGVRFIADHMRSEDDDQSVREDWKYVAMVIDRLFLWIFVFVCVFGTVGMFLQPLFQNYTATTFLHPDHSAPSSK
Chain of Neuronal acetylcholine receptor subunit alpha-7 (Rattus norvegicus, UniProt Q05941) (Q05941 whole entry): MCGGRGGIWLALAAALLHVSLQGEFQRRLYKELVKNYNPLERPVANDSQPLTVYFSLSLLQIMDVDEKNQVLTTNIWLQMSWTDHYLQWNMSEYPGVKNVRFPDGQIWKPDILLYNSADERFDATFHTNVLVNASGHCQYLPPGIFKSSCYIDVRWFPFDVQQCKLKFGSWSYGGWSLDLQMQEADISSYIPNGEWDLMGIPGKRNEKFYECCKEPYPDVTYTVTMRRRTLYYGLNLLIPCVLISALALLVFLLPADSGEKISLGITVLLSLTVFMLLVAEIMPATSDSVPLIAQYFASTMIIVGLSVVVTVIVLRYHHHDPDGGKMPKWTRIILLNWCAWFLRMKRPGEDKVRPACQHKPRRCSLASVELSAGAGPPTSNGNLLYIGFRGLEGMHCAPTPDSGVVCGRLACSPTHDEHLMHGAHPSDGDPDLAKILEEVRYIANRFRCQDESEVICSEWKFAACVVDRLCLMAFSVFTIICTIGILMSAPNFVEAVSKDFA
Chain of Neuronal acetylcholine receptor; alpha4/beta2 (Homo sapiens, UniProt P17787+P43681) (P17787 whole entry): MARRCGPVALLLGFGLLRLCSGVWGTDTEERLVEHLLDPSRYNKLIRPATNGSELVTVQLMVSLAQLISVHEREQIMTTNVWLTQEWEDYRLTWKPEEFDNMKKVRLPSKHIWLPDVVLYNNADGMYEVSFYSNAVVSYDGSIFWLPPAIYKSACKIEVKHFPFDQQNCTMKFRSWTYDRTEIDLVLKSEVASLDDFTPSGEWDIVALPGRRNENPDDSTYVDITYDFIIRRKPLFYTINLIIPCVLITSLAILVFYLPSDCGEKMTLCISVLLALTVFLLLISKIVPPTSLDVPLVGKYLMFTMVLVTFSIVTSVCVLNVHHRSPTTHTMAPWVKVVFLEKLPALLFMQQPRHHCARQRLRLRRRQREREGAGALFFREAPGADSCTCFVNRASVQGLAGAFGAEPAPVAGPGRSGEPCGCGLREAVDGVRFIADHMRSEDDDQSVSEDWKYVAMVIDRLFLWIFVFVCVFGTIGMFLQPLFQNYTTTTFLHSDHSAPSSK
Chain of Neuronal acetylcholine receptor; alpha4/beta2 (Homo sapiens, UniProt P17787+P43681) (P43681 whole entry): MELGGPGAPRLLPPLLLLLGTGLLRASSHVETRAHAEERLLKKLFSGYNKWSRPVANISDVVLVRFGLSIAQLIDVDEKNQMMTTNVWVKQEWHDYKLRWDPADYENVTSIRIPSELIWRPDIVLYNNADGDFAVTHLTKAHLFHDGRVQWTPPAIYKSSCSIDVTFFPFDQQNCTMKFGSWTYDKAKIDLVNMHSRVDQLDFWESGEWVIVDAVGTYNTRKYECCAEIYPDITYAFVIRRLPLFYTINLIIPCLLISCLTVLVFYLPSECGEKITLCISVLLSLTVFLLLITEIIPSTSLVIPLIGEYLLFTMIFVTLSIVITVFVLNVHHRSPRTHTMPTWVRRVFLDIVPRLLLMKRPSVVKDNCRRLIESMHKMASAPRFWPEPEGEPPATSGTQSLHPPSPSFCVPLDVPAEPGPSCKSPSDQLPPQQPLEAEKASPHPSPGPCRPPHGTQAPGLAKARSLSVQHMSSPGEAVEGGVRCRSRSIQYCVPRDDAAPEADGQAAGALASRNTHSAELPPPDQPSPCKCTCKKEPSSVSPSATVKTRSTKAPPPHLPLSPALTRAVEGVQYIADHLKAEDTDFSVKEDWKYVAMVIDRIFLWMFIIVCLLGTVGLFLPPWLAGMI
Chain of Neuronal acetylcholine receptor subunit alpha-7 (Homo sapiens, UniProt P36544) (P36544 whole entry): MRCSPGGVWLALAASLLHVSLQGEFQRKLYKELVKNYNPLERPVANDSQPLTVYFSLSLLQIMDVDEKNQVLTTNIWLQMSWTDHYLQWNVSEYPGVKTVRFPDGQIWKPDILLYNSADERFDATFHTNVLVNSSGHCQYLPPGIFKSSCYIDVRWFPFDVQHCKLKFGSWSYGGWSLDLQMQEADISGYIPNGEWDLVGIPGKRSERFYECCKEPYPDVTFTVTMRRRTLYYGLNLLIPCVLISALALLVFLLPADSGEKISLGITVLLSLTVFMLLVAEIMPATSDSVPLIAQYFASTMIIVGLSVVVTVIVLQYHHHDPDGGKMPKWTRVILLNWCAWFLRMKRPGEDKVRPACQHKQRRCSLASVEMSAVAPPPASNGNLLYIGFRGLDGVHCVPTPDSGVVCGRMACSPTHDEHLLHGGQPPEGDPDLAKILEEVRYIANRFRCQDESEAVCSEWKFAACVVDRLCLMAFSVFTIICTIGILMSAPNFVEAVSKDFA

In the case of `CC(=O)C1=CC[C@@H]2CC[C@H]1N2`, the results for the pKi in experiment [1] and in experiment [2] were 4.00 and 7.03, respectively.
In turn, `CC(C)C(=O)N[C@H]1CCCN2CCCC[C@H]12` (racemic) had a pKi in [3] of 5.22.
In the case of `CC(C)C(=O)N[C@@H]1CCN2CCCC[C@@H]12` (racemic), the pKi was 4.54 in experiment [4] and 4.00 in experiment [3].
On to `CC(C)C(=O)N[C@H]1CCN2CCCC[C@@H]12` (racemic), for which the pKi was 4.59 in experiment [4] and 3.55 in [3].
`CC(=O)N[C@H]1CCCN2CCCC[C@@H]12`: the outcome in [5] was inactive.
`CC(C)C(=O)N[C@H]1CCCN2CCCC[C@@H]12` (racemic) showed a pKi in experiment [3] of 5.17.
In turn, `CCC(=O)N[C@H]1CCCN2CCCC[C@@H]12` (racemic) had a pKi in [3] of 5.35.
`CCC(C)C(=O)N[C@H]1CCN2CCC[C@H]12` (stereo not given in full): the results for the Ratio Ki (in the experiment listed under Rattus norvegicus; in experiment [6]) were 136 and 126, respectively. This compound showed an Activity in [7] of 5%. Further, the inhibition in [8] was 46%. The pIC50 in experiment [9] was 5.80. In addition, the Efficacy in experiment [10] stood at 43%. In addition, the pEC50 in experiment [11] is 5.24. Besides, the pKi in experiment [12] is under 5.00; in experiment [4], 4.40; in experiment [13] it was 4.43; in experiment [3] it was 6.54.
In turn, `CCC(=O)N[C@H]1CCCN2CCCC[C@H]12` (racemic) gave a pKi in [3] of 5.21.
Regarding `O=c1cccc2n1C[C@@H]1CNC[C@H]2C1` [CYTISINICLINE], the pKi in experiment [4] was 6.64; in experiment [13], 6.55; in experiment [3], 8.68.
